Test results taken from patent US6486199B1, “Spiro and dispiro 1,2,4-trioxolane antimalarials” (Medicines for Malaria Venture MMV International Centre …, priority 2001, dated 2002).
Values after ≈ are worked out from the molar mass of the structure shown. Like-named read-outs stand apart in the source and are kept apart here. Marks after values point to notes of the source that are not given here.

Assays:
[1] = tested on: chloroquine-resistant K1 strain of P. falciparum; experiment: in vitro screen against chloroquine-resistant K1 strain of P. falciparum; type: cell-based; conditions: Plasmodium falciparum
[2] = tested on: chloroquine-sensitive NF54 strain of P. falciparum; experiment: in vitro screen against chloroquine-sensitive NF54 strain of P. falciparum; type: cell-based; conditions: Plasmodium falciparum
[3] = tested on: ANKA strain of P. Berghei; experiment: single dose STI in vivo screen in infected Moro SPF mice; conditions: for inhibition in vivo at 10 mg/kg / inhibition in vivo at 100 mg/kg: Plasmodium berghei, 72 h; for inhibition in vivo at 10 mg/kg / inhibition in vivo at 100 mg/kg / Activity (%) po / Activity (%) sc: percent reduction in parasitemia day 3 post-infection; for antimalarial activity, overall assessment: overall judgement of in vitro and in vivo data of Table 2
[4] = tested on: P. berghei; experiment: 1-day Peters test against P. berghei in vivo; conditions: 1 day; for ED50 / ED90: Plasmodium berghei, 24 h; for ED90: read-out: P. berghei (1 day) ED90 po
[5] = tested on: adult S. mansoni; experiment: activity against adult S. mansoni, treated once at day 49 of infection; type: in vivo; conditions: OZ05 200 mg/kg p.o., OZ11 100 mg/kg p.o.
[6] = tested on: 21-day-old schistosomules of Schistosoma mansoni; experiment: effect on 21-day-old schistosomules in mice; type: in vivo; conditions: single 200 mg/kg per os; for TWR (%): total worm reduction rate
Experimental: […] Each group was treated per os with OZ compounds at a single dose of 200 mg/kg. Untreated mice served as the control. All groups were killed 4 weeks after treatment and the liver and intestine were removed and separated. The liver and intestine were compressed and alive male and female worms could be seen and counted. The effect of the compounds was evaluated by mean total and female worm burden.

[7] = tested on: adult schistosomes (49-day-old) of Schistosoma mansoni; experiment: effect on adult schistosomes (49-day-old) in mice; type: in vivo; conditions: single 400 mg/kg per os; for TWR (%): total worm reduction rate
Experimental: Mice were infected with 100 Schistosoma mansoni cercariae […]. Each group was treated per os with OZ compounds at a single dose of 400 mg/kg. Untreated mice served as the control. All groups were killed 4 weeks after treatment and the liver and intestine were removed and separated. The liver and intestine were compressed and alive male and female worms could be seen and counted.

[8] = tested on: NB2a cell line; experiment: neurotoxicity against the NB2a cell line; type: cell-based
[9] = tested on: P. berghei; experiment: 4-day Peters test against P. berghei in vivo; conditions: 4 day; for ED50: Plasmodium berghei, 96 h
[10] = tested on: parasitemia; experiment: onset of drug action and recrudescence after single oral dose; type: in vivo
Experimental: The reduction of parasitemia was monitored 12 h after treatment, and the time of recrudescence was assessed by daily blood smears for 14 days, followed by intermittent assessment for up to 30 days.

[11] = differential scanning calorimetry (DSC), thermal stability; type: physicochemical; conditions: thermal decomposition
[12] = single 10 mg/kg po, read-out: Activity (%) po
[13] = single 100 mg/kg po, survival to day 30 = cure
[14] = single 100 mg/kg sc, survival to day 30 = cure
[15] = po, read-out: P. berghei (1 day) ED50 po
[16] = sc, read-out: P. berghei (1 day) ED50 sc

Compound	IC50 ([1]; K1, read-out: IC50 (ng/ml) K1)	inhibition in vivo at 10 mg/kg [3, 12]	Survival (days) po ([3]; single 10 mg/kg po)	Survival (days) sc ([3]; single 10 mg/kg sc)	Survival (days) po [3, 13]	Survival (days) sc [3, 14]	P. berghei (1 day) ED90 sc ([4]; sc)	ED50 [4, 15]	ED90 ([4]; po)	ED50 [4, 16]	TWR (%) [6]	TWR (%) [7]	IC50 [8]	antimalarial activity, overall assessment [3]	Activity (%) po ([3]; single 100 mg/kg po)	Activity (%) sc ([3]; single 100 mg/kg sc)	also measured
CO[C@H]1O[C@@H]2O[C@@]3(C)CC[C@H]4[C@H](C)CC[C@@H]([C@H]1C)[C@@]24OO3 [Artemether, artemether, reference compound]	0.5 ng/mL (≈ 1.68 nM)	98.7%	8.0 days	9.0 days	14.7/14.7 days	14.7/14.7 days	2.3 mg/kg	2 mg/kg	4.3 mg/kg	2.1 mg/kg	82.2%	31.0%					IC50 ([2]; NF54, read-out: IC50 (ng/ml) NF54): 0.37 ng/mL (≈ 1.24 nM); inhibition in vivo at 10 mg/kg ([3]; single 10 mg/kg sc, read-out: Activity (%) sc): 100%; inhibition in vivo at 100 mg/kg ([3]; single 100 mg/kg po, read-out: Activity (%) po): 100%; inhibition in vivo at 100 mg/kg ([3]; single 100 mg/kg sc, read-out: Activity (%) sc): 100%; activity against adult S. mansoni [5]: no activity
C[C@H]1[C@@H](O)O[C@@H]2O[C@@]3(C)CC[C@H]4[C@H](C)CC[C@@H]1[C@@]24OO3 [Dihydroart, dihydroartemisinin, reference compound]		80%	6.8/NA days					2.9 mg/kg	12 mg/kg				0.22 µM				IC50 ([1]; in vitro, K1 strain, read-out: IC50 (ng/ml) K1): 0.22 ng/mL (≈ 0.774 nM); IC50 ([2]; in vitro, NF54 strain, read-out: IC50 (ng/ml) NF54): 0.23 ng/mL (≈ 0.809 nM)
C1CCC2(CC1)OOC1(O2)C2CC3CC(C2)CC1C3 (centres unmarked) [OZ03, Adamantane-2-spiro-3′-1′,2′,4′-trioxaspiro[4.5]decane]	1.2 ng/mL (≈ 4.54 nM)		7.2 days	11.9 days	14.3 days	28 days	2.2 mg/kg	5 mg/kg	8.8 mg/kg	0.7 mg/kg			13 µM	more active	100/100%	100/100%	Activity (%) po ([3]; single 10 mg/kg po): 94%; Activity (%) sc ([3]; single 10 mg/kg sc): 100%; P. berghei (4 day) ED90 po ([9]; po): 2.7 mg/kg; P. berghei (4 day) ED90 sc ([9]; sc): 1.1 mg/kg; ED50 ([9]; po, read-out: P. berghei (4 day) ED50 po): 1 mg/kg; ED50 ([9]; sc, read-out: P. berghei (4 day) ED50 sc): 0.6 mg/kg; duration of action compared with artemether ([10]; single 100 mg/kg po): comparable; Recrudescence (>5% parasitemia) occurs on day ([10]; single 100 mg/kg po on day +3 post-infection): 7 days
C1C2CC3CC1CC(C2)C31OOC2(O1)C1CC3CC(C1)CC2C3 (centres unmarked) [OZ04, Adamantane-2-spiro-3′-1′,2′,4′-trioxolane-5′-spiro-2″-adamantane]					5.3/5.3 days	5.3/5.3 days					7%	0%		completely inactive	0/0%	0/0%	IC50 ([8]; NB2a cell line): 44 µM; FWR (%) ([6]; female worm reduction rate): 7%; Mean female worm burden ([6]; mean ± standard deviation): 11.6 ± 3.2^a; Percentage of dead worm [7]: 0; Total dead worm [7]: 0; Mean total worm burden ([7]; x ± SD): 37.6 ± 13.4; Tm dec. (° C.) [11]: 150.8 °C
